Source: BindingDB's records for doi:10.7270/Q2TX3CTT (Broad Institute, 2010)

Each compound was assayed against Glycogen synthase kinase-3 beta (Homo sapiens, UniProt P49841) (assay: GSK3beta kinase inhibitor potency, dose response, biochemical, luminescence, cell-free homogeneous, retest (AID 434954)).
Glycogen synthase kinase-3 beta, sequence (P49841 whole entry): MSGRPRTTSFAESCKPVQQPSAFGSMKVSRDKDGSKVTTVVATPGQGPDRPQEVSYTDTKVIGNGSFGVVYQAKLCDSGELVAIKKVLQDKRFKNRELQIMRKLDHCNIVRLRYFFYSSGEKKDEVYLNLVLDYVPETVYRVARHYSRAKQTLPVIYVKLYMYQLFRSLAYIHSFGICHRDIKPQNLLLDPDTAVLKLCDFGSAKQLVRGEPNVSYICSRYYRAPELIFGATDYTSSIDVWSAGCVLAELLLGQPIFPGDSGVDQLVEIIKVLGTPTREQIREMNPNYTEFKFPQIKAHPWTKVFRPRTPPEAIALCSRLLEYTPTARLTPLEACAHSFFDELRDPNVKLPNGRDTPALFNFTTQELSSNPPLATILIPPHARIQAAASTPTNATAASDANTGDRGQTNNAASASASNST

SMILES | EC50
O=C(Nc1cccc(Cl)c1)Nc1ccnc(-c2cccnc2)n1 [SMR000337179] | > 300 µM
Cc1ccccc1C(=O)Nc1ccc(O)c2c(=O)cc(-c3ccccc3Cl)oc12 [MLS000518806] | > 300 µM
COC(=O)c1nnn(-c2nonc2N)c1CSc1nc2ccccc2o1 [methyl 1-(4-amino-1,2,5-oxadiazol-3-yl)-5-[(1,3-benzoxazol-2-ylthio)methyl]-1H-1,2,3-triazole-4-carboxylate] | 127 µM
Cc1cc(C)n2nc(C(=O)NN=Cc3ccc(O)cc3)nc2n1 [5,7-dimethyl-N'-[(4-oxocyclohexa-2,5-dien-1-ylidene)methyl]-[1,2,4]triazolo[1,5-a]pyrimidine-2-carbohydrazide] | 15.4 µM
Cc1cc2c(Nc3ccc(O)cc3)ncnc2s1 [4-(6-Methyl-thieno[2,3-d]pyrimidin-4-ylamino)-phenol] | > 300 µM
COc1ccc(C)cc1NC(=O)CN(C)S(=O)(=O)c1ccc2c(c1)CC(C)N2C(C)=O (configuration not stated) [MLS001122753] | > 300 µM
COC(=O)c1sccc1NC(=O)c1cccc(OC)c1 [methyl 3-[(3-methoxyphenyl)carbonylamino]thiophene-2-carboxylate] | > 300 µM
O=c1cc(O)cc2oc(-c3ccc(O)c(O)c3)c(O[C@@H]3O[C@H](CO)[C@@H](O)[C@H](O)[C@H]3O)c(O)c1-2 [Quercetin 3-O-beta-D-glucoside] | 15.8 µM
CN1CCN(c2ccc([N+](=O)[O-])cc2Cl)CC1 [SMR000283168] | > 300 µM
O=C(NCC(c1ccco1)N1CCN(c2ccc(F)cc2)CC1)c1ccc2c(c1)OCO2 (configuration not stated) [N-[2-[4-(4-fluorophenyl)-1-piperazinyl]-2-(2-furanyl)ethyl]-1,3-benzodioxole-5-carboxamide] | > 300 µM
Nc1ncnc(Nc2cccc(C(F)(F)F)c2)n1 | > 300 µM
CCOc1ccc(/C=C2\CCCc3c2nc2ccccc2c3C(=O)O)cc1OC [SMR000688807] | > 300 µM
CN(C(=O)CSc1nnc(-c2c[nH]c3ccccc23)o1)C1CCS(=O)(=O)C1 (configuration not stated) [N-(1,1-dioxothiolan-3-yl)-2-[[(2Z)-2-indol-3-ylidene-3H-1,3,4-oxadiazol-5-yl]sulfanyl]-N-methylacetamide] | > 300 µM
Fc1ccc(CSc2nnc(-c3ccncc3)o2)cc1 | > 300 µM
COc1ccc(OC)c(-c2cc(-c3cccnc3)nc(N)c2C#N)c1 [2-amino-4-(2,5-dimethoxyphenyl)-6-pyridin-3-ylpyridine-3-carbonitrile] | > 300 µM
CCn1c(SCC(=O)Nc2ccccc2)nnc1C1CCCCC1 | > 300 µM
COc1ccc(-n2c(Cc3cccn3C)nnc2SCC(=O)NCC2CCCO2)cc1 (configuration not stated) [2-[[4-(4-methoxyphenyl)-5-[(1-methylpyrrol-2-yl)methyl]-1,2,4-triazol-3-yl]sulfanyl]-N-(oxolan-2-ylmethyl)acetamide] | > 300 µM
Cc1cc(=O)[nH]c(N=NCc2ccc(-c3ccc([N+](=O)[O-])cc3)o2)n1 [SMR000589712] | > 300 µM
CCCCc1cc(=O)oc2cc(C)cc(O)c12 | > 300 µM
c1csc(CN=Nc2ncnc3nc[nH]c23)c1 [MLS000419130] | 19.7 µM
O=c1cc(-c2ccccc2Cl)oc2cc(O)cc(O)c12 [2-(2-chlorophenyl)-5,7-dihydroxychromen-4-one] | 1.67 µM
Cc1ccc2c(C)c(C(=O)Nc3nnc(C)s3)oc2c1 [3,6-dimethyl-N-(5-methyl-1,3,4-thiadiazol-2-yl)-1-benzofuran-2-carboxamide] | > 300 µM
O=C(COc1ccccc1Cl)Nc1ccc2c(c1)OCCO2 [2-(2-chloranylphenoxy)-N-(2,3-dihydro-1,4-benzodioxin-6-yl)ethanamide] | > 300 µM

SMILES | EC50
CCCCn1nc(NC(=O)c2cccs2)c2cc3ccccc3nc21 [MLS000081455] | > 300 µM
CC(=O)NC(=S)Nc1ccccc1N1CCCCC1 [SMR000292167] | > 300 µM
NC(=S)c1cn(C2OC(CO)C(O)C2O)c2ncnc(N)c12 (configuration not stated) [4-amino-7-[3,4-dihydroxy-5-(hydroxymethyl)oxolan-2-yl]pyrrolo[2,3-d]pyrimidine-5-carbothioamide] | 12 µM
N#CCCn1cc(C(CC(=O)c2ccccc2)C(=O)O)c2ccccc21 (configuration not stated) [MLS000049352] | > 300 µM
Cc1ccc(Nc2nc(N)c([N+](=O)[O-])c(NCc3ccccc3)n2)cc1 [N2-(4-methylphenyl)-5-nitro-N4-(phenylmethyl)pyrimidine-2,4,6-triamine] | > 300 µM
Cc1c(NC(=O)C(C)OC(=O)COc2ccccc2)c(=O)n(-c2ccccc2)n1C (configuration not stated) [[1-[(1,5-dimethyl-3-oxidanylidene-2-phenyl-pyrazol-4-yl)amino]-1-oxidanylidene-propan-2-yl] 2-phenoxyethanoate] | > 300 µM
CCOC(=O)c1c(-c2ccccc2)oc2ccc(OCC(=O)NNC(=O)CCCC(=O)O)cc12 | > 300 µM
COCc1c(C(=O)NN=Cc2ccccn2)nnn1-c1nonc1N | > 300 µM
Cc1ccc(C=NNC(=O)COc2ccc(C)cc2[N+](=O)[O-])cc1 [2-(4-methyl-2-nitrophenoxy)-N'-[(1Z)-(4-methylphenyl)methylene]acetohydrazide] | > 300 µM
N#CCCn1cc(CN=O)c(-c2cccc([N+](=O)[O-])c2)n1 [3-[4-(hydroxyiminomethyl)-3-(3-nitrophenyl)pyrazol-1-yl]propanenitrile] | 50.1 µM
COc1cccc(C(=O)CN2C=CC=CC2=CN=O)c1 [2-[(hydroxyimino)methyl]-1-[2-(3-methoxyphenyl)-2-oxoethyl]pyridinium] | > 300 µM
Nc1nc(NCCOCCO)nc(NC2CCCCC2)c1[N+](=O)[O-] [SMR000540405] | 3.01 µM
COc1cccc2cc(CC(=O)c3ccc(C)cc3C)c(=O)oc12 [3-[2-(2,4-dimethylphenyl)-2-oxoethyl]-8-methoxychromen-2-one] | > 300 µM
O=C1Nc2ccccc2C1=NN1CCOCC1 [3-(morpholin-4-ylamino)indol-2-one] | > 300 µM
COCCNc1nc(N)c([N+](=O)[O-])c(Nc2ccc(F)cc2)n1 | > 300 µM
S=C1Nc2cc(Cl)ccc2Sc2ccccc21 [MLS000698392] | > 300 µM
COc1cc(/C=N/NC(=O)c2ccccc2F)ccc1Oc1ccc([N+](=O)[O-])cn1 [MLS000779573] | > 300 µM
Fc1ccc(CSc2ccc3nnc(-c4cccs4)n3n2)cc1 [SMR000236997] | > 300 µM
CCc1cc(=O)oc2cc(OC(C)=O)cc(OC(C)=O)c12 [(5-acetyloxy-4-ethyl-2-oxidanylidene-chromen-7-yl) ethanoate] | 28.5 µM
CCOC(=O)CSc1ccc2nnc(-c3ccccc3)n2n1 [ethyl 2-[(3-phenyl-[1,2,4]triazolo[4,3-b]pyridazin-6-yl)sulfanyl]acetate] | 44.6 µM
O=C(c1ccc(Br)cc1)c1coc2ccc(O)cc12 [MLS001178337] | 15.4 µM
COc1ccc(CCNc2nc(-c3cccnc3)nc3ccccc23)cc1OC [N-[2-(3,4-dimethoxyphenyl)ethyl]-2-pyridin-3-ylquinazolin-4-amine] | > 300 µM
Cc1ccc(OCCn2c(S)nc3c(N)ncnc32)cc1 [MLS000765129] | > 300 µM

SMILES | EC50
COc1ccccc1-c1nc(C(=O)NCC2CCCO2)cc2c1[nH]c1ccccc12 (configuration not stated) [1-(2-methoxyphenyl)-N-(oxolan-2-ylmethyl)-9H-pyrido[3,4-b]indole-3-carboxamide] | > 300 µM
CC(=O)Oc1cc(C)cc2oc(=O)cc(-c3ccccc3)c12 | > 300 µM
COc1ccc(N2CC(C(=O)Nc3cc(C)ccn3)CC2=O)cc1 (configuration not stated) [1-(4-methoxyphenyl)-N-(4-methylpyridin-2-yl)-5-oxopyrrolidine-3-carboxamide] | 46.6 µM
CCN(CC)Cc1c(O)ccc2c1O/C(=C\C=C\c1ccccc1)C2=O [MLS000779120] | > 300 µM
CNc1nc(N)c([N+](=O)[O-])c(Nc2cccc(F)c2)n1 [SMR000436035] | 12.4 µM
CCOc1ccc(Nc2nc(N)c([N+](=O)[O-])c(NCc3ccccc3)n2)cc1 [N'-Benzyl-N-(4-ethoxy-phenyl)-5-nitro-pyrimidine-2,4,6-triamine] | > 300 µM
COc1ccc(-c2nn(-c3ccccc3)cc2C#N)cc1 [3-(4-methoxyphenyl)-1-phenyl-4-pyrazolecarbonitrile] | > 300 µM
Cc1nn(-c2ccccc2)c2c1cc1c(=O)n(C)c(=O)nc-1n2-c1ccccc1F [MLS000769580] | 106 µM
CC1CCCCN1c1cc(C#N)c(C#N)cc1[N+](=O)[O-] (configuration not stated) [4-(2-methyl-1-piperidinyl)-5-nitrophthalonitrile] | > 300 µM
CN=C(NC#N)SCC(=O)c1ccc(Cl)cc1Cl [[2-(2,4-dichlorophenyl)-2-oxidanylidene-ethyl] N-cyano-N'-methyl-carbamimidothioate] | 3.19 µM
CC(C)=CCc1c(O)cc(O)c2c(=O)c3c(CC=C(C)C)c(O)ccc3oc12 [2,6,8-trihydroxy-1,5-bis(3-methylbut-2-enyl)xanthen-9-one] | > 300 µM
COc1ccc2oc3cc(C)[n+]([O-])c(-c4ccc(Br)cc4)c3c2c1 [MLS000588179] | > 300 µM
CC1=C(C#N)C(=O)NC(=O)C1=NNc1ccc(Br)cc1C(=O)O [MLS001213177] | > 300 µM
O=C1CCCC2=Nc3nc(SCc4ccccc4)nn3C(c3cccs3)C12 (configuration not stated) [2-(phenylmethylthio)-9-thiophen-2-yl-5,6,7,9-tetrahydro-1H-[1,2,4]triazolo[5,1-b]quinazolin-8-one] | > 300 µM
COc1ccc2c(c1)-c1c(sn(-c3ccccc3)c1=S)C(C)(C)N2 | > 300 µM
Cc1cc(NC(=O)CSc2ccc3nnc(-c4ccc(F)cc4)n3n2)no1 [2-{[3-(4-fluorophenyl)[1,2,4]triazolo[4,3-b]pyridazin-6-yl]thio}-N-(5-methylisoxazol-3-yl)acetamide] | > 300 µM
CCCCC(=O)Nc1nn(CC(C)C)c2nc3ccccc3cc12 [SMR000043369] | > 300 µM
COc1ccc(-c2c(C)oc3ccc(C)cc23)cc1 [MLS000562305] | > 300 µM
CN(C)CCCNc1nc(N)c([N+](=O)[O-])c(NCCO)n1 [2-[[6-amino-2-[3-(dimethylamino)propylamino]-5-nitro-4-pyrimidinyl]amino]ethanol] | 60.3 µM
C=CCC1(CC=C)CCCN1C(=O)C1CCC(=O)N(CCc2ccc(OC)cc2)C1 (configuration not stated) [MLS001072450] | > 300 µM
CC(=O)N1CCc2c(sc(NC(=O)CS(=O)(=O)c3ccc(F)cc3)c2C(N)=O)C1 [SMR000808580] | > 300 µM
